Results as given in patent US7273710B2, “Method for screening MCH receptor antagonist/agonist” (Takeda Pharmaceutical Company Limited, priority 2000, dated 2007).
Positions of bridges follow the written chain, without caps; N, C: chain ends. No end group written: not given here.

Experiments:
human SLT [1] = biological target: T1, human SLT (Homo sapiens, UniProt Q969V1); experiment: Inhibition of forskolin-stimulated cAMP production in human SLT-expressing CHO cells; assay type: cell-based; conditions: CHO/hSLT cells, 2 μM forskolin, FIG. 2
T1 construct: expressed in transfected cells; host or cells: membrane fraction of CHO/hSLT cells (CHO dhfr- transfected with pAKKO-hSLT)

human SLT [2] = biological target: T1, human SLT; experiment: FLIPR assay of intracellular Ca ion level in human SLT-expressing CHO cells; assay type: cell-based; conditions: CHO/hSLT cells, Fluo 3-AM, FIG. 5
human SLT [3] = biological target: T1, human SLT; experiment: Release of [3H] arachidonic acid metabolite in human SLT-expressing CHO cells; assay type: cell-based; conditions: CHO/hSLT cells, FIG. 6
human SLT [4] = biological target: T1, human SLT; experiment: Receptor binding assay with [125I]-labeled MCH (4-19) on cell membrane fraction of human SLT-expressing CHO cells; conditions: membrane fractions from CHO/hSLT clones #1, 26, 36, 25° C., 60 minutes, FIG. 3

T1 sequence (Q969V1 whole entry): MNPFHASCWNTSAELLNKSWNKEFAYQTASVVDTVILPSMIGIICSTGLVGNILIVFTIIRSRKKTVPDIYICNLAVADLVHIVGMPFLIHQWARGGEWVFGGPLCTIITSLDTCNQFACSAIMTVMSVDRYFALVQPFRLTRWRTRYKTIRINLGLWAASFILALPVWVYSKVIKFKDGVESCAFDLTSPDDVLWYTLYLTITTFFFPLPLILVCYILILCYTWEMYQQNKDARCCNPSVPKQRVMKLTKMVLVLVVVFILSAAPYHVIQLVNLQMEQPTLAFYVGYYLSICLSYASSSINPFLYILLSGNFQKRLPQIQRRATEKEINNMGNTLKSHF

Compound	concentration at which the intracellular cAMP was clearly decreased (human SLT [1]; 37° C., 30 minutes) [pM]	inhibition of cAMP production, concentration dependence (human SLT [1])	increase of the intracellular Ca ion level (human SLT [2])	activity to induce the release of the arachidonic acid metabolite (human SLT [3])	specific binding to cell membrane fraction (human SLT [4])
CSCC[C@@H]1NC(=O)[C@@H](NC(=O)[C@H](CCCNC(=N)N)NC(=O)[C@H](CC(C)C)NC(=O)[C@H](CCSC)NC(=O)[C@H](CC(=O)O)NC(=O)[C@H](Cc2ccccc2)NC(=O)[C@@H](N)CC(=O)O)CSSC[C@@H](C(=O)N[C@@H](Cc2c[nH]c3ccccc23)C(=O)N[C@@H](CCC(N)=O)C(=O)N[C@H](C(=O)O)C(C)C)NC(=O)[C@@H]2CCCN2C(=O)[C@H](CCCNC(=N)N)NC(=O)[C@H](Cc2ccc(O)cc2)NC(=O)[C@H](C(C)C)NC(=O)[C@H](CCCNC(=N)N)NC(=O)CNC(=O)[C@H](CC(C)C)NC1=O [MCH, Asp-Phe-Asp-Met-Leu-Arg-Cys-Met-Leu-Gly-Arg-Val-Tyr-Arg-Pro-Cys-Trp-Gln-V al]	30	decreased in a dose-dependent manner	increases the intracellular Ca ion level in human SLT-expressing CHO cells in a manner dependent on the concentration	in a does-dependent manner	
[^125I]-[N-3-(4-hydroxy-3-iodophenyl)propionyl)-Met^4]-MCH (4-19) ({3‑(4-hydroxy-3-(125I)iodophenyl)propionyl}-MLRCMLGRVYRPCWQV; disulfide 4-13) [[^125I]-labeled MCH (4-19)]					dependent on the concentration of membrane fraction was observed
